According to patent US20250243196A1, “CITRON KINASE INHIBITORS” (The Cleveland Clinic Foundation, priority 2021, published 2025):
pIC50: −log10 of the molar value.

Key:
Type in all cases: biochemical
Mnk2 = Mnk2 (Homo sapiens (Human), UniProt Q9HBH9); assay: KinaseProfiler radiometric assay (14-664KP); conditions: mean of at least two independent experiments
From the text: In another aspect, disclosed is a method of inhibiting citron kinase in a sample, comprising contacting the sample with a compound described herein (e.g., a compound of formula (I) or a pharmaceutically acceptable salt thereof), or a pharmaceutical composition described herein (e.g., a pharmaceutical composition comprising a compound of formula (I) or a pharmaceutically acceptable salt thereof), in an amount effective to inhibit citron kinase. In some embodiments, the step of contacting the sample with the compound comprises administering the compound to a subject (e.g., a subject) suffering from cancer. Methods of determining kinase inhibition are well known in the art. For example, kinase activity of an enzyme and the inhibitory capacity of a test compound can be determined by measuring enzyme specific phosphorylation of a substrate. Commercial assays and kits can be employed. For example, kinase inhibition can be determined using a radiometric binding assay, such as using KinaseProfiler™ technology (Eurofins Discovery). This assay method directly detects product formation without the use of modified substrates or coupling enzymes. […]
The effect of various compounds on the inhibition of other kinases has also been determined. Table 2 reports measured IC50 values; value units are nanomolar inhibition.

CRIK(h) = CRIK(h) (Homo sapiens (Human), UniProt O14578); assay: KinaseProfiler panel; design: dose or concentration left out as unconfirmed; conditions: activity remaining
ALK1(h) = ALK1(h) (Homo sapiens (Human), UniProt P37023); assay: KinaseProfiler panel; design: dose or concentration left out as unconfirmed; conditions: activity remaining
ATM(h) = ATM(h) (Homo sapiens (Human), UniProt Q13315); assay: KinaseProfiler panel; design: dose or concentration left out as unconfirmed; conditions: activity remaining
Aurora-A(h) = Aurora-A(h) (Homo sapiens (Human), UniProt O14965); assay: KinaseProfiler panel; design: dose or concentration left out as unconfirmed; conditions: activity remaining
CDK4/cyclinD3(h) = CDK4/cyclinD3(h) (Homo sapiens (Human), UniProt P11802); assay: KinaseProfiler panel; design: dose or concentration left out as unconfirmed; conditions: activity remaining
CDK4/cyclinD3(h), sequence (P11802 whole entry): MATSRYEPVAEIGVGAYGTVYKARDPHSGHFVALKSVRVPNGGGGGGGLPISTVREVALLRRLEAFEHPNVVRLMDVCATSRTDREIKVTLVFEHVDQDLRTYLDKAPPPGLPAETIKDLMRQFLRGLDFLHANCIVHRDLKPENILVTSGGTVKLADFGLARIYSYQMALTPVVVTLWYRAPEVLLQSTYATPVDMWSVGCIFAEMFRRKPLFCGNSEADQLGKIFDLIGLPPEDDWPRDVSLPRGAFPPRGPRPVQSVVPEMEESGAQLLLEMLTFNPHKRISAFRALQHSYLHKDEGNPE
CDK4/cyclinD3(h), sequence (P30281 whole entry partner): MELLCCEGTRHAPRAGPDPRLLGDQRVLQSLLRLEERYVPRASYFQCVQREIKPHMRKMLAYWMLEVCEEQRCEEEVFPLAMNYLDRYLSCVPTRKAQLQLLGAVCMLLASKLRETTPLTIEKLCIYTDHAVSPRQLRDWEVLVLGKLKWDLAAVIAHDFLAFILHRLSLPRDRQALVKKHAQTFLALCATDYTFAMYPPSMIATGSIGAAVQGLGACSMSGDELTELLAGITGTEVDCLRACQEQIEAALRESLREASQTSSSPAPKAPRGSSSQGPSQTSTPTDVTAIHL

CLIK1(h) = CLIK1(h) (Homo sapiens (Human), UniProt Q8TDR2); assay: KinaseProfiler panel; design: dose or concentration left out as unconfirmed; conditions: activity remaining
CLIK1(h), sequence (Q8TDR2 whole entry): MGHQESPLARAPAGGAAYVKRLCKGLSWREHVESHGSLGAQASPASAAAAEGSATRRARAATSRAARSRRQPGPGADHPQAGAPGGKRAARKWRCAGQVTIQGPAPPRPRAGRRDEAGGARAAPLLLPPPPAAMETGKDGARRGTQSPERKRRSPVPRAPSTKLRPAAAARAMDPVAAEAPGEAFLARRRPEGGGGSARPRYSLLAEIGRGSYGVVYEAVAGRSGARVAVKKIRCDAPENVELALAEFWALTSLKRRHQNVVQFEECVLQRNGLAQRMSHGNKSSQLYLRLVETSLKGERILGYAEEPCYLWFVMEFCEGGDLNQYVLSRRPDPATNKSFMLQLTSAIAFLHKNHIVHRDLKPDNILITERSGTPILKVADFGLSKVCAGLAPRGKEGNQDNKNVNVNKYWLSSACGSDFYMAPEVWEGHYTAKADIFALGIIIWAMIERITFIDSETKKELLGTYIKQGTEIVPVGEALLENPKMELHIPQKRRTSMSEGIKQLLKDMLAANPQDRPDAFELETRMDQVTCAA

DYRK1B(h) = DYRK1B(h) (Homo sapiens (Human), UniProt Q9Y463); assay: KinaseProfiler panel; design: dose or concentration left out as unconfirmed; conditions: activity remaining
eEF-2K(h) = eEF-2K(h) (Homo sapiens (Human), UniProt O00418); assay: KinaseProfiler panel; design: dose or concentration left out as unconfirmed; conditions: activity remaining
GRK7(h) = GRK7(h) (Homo sapiens (Human), UniProt Q8WTQ7); assay: KinaseProfiler panel; design: dose or concentration left out as unconfirmed; conditions: activity remaining
IKKβ(h) = IKKβ(h) (Homo sapiens (Human), UniProt O14920); assay: KinaseProfiler panel; design: dose or concentration left out as unconfirmed; conditions: activity remaining
IKKε(h) = IKKε(h) (Homo sapiens (Human), UniProt Q14164); assay: KinaseProfiler panel; design: dose or concentration left out as unconfirmed; conditions: activity remaining
IKKε(h), sequence (Q14164 whole entry): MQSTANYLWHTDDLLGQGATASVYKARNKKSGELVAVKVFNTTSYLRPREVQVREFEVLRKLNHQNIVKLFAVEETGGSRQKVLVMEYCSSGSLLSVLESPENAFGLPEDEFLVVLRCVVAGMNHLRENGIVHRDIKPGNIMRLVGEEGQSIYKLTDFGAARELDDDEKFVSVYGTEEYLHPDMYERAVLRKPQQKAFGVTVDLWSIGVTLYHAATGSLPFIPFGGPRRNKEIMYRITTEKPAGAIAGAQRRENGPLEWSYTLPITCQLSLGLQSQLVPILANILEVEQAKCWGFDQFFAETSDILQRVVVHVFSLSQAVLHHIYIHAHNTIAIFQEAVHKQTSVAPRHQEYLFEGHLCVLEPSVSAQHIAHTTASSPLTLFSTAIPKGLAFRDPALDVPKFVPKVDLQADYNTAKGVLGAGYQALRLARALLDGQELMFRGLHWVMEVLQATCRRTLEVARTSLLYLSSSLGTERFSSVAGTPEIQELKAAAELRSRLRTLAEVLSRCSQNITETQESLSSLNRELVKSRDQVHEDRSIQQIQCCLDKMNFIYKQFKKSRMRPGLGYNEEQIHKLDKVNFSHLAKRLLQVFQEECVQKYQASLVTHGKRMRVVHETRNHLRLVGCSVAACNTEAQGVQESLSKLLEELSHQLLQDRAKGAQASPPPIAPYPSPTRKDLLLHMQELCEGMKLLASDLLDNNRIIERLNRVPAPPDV

JNK2α2(h) = JNK2α2(h) (Homo sapiens (Human), UniProt P45984); assay: KinaseProfiler panel; design: dose or concentration left out as unconfirmed; conditions: activity remaining
LATS1(h) = LATS1(h) (Homo sapiens (Human), UniProt O95835); assay: KinaseProfiler panel; design: dose or concentration left out as unconfirmed; conditions: activity remaining
LTK(h) = LTK(h) (Homo sapiens (Human), UniProt P29376); assay: KinaseProfiler panel; design: dose or concentration left out as unconfirmed; conditions: activity remaining
MAK(h) = MAK(h) (Homo sapiens (Human), UniProt P20794); assay: KinaseProfiler panel; design: dose or concentration left out as unconfirmed; conditions: activity remaining
MLCK(h) = MLCK(h) (Homo sapiens (Human), UniProt Q15746); assay: KinaseProfiler panel; design: dose or concentration left out as unconfirmed; conditions: activity remaining
mTOR/FKBP12(h) = mTOR/FKBP12(h) (Homo sapiens (Human), UniProt P42345); assay: KinaseProfiler panel; design: dose or concentration left out as unconfirmed; conditions: activity remaining
mTOR/FKBP12(h), sequence (P42345 1362-2549): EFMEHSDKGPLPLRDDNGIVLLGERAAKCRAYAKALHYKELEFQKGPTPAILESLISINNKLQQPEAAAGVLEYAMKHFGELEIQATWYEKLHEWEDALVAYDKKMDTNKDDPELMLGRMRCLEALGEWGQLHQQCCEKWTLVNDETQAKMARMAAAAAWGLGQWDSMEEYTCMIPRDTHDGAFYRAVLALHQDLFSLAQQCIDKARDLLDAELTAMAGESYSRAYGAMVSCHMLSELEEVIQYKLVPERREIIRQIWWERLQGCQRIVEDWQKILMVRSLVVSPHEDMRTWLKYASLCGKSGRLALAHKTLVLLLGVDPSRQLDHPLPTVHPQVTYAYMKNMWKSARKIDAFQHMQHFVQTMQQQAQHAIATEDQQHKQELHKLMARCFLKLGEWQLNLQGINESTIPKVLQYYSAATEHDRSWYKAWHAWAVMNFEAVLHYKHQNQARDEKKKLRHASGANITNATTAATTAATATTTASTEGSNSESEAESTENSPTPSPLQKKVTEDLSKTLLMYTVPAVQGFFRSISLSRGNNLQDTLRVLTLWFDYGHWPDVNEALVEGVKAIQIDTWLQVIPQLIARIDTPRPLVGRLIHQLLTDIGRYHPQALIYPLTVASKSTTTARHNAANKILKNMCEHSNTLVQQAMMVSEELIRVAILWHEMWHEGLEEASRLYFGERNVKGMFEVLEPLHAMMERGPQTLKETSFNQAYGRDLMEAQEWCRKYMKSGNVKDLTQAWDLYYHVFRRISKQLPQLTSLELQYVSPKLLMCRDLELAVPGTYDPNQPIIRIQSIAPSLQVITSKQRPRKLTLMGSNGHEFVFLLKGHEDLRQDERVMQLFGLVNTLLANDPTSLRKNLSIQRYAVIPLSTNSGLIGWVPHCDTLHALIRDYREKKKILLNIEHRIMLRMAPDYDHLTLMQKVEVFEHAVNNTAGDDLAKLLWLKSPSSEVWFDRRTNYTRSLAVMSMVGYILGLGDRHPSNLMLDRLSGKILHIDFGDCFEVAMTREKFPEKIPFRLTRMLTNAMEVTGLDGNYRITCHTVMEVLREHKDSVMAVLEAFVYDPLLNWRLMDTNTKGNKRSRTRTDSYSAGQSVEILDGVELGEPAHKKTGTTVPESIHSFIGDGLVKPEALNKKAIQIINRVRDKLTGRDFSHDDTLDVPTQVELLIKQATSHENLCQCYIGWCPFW

NEK1(h) = NEK1(h) (Homo sapiens (Human), UniProt Q96PY6); assay: KinaseProfiler panel; design: dose or concentration left out as unconfirmed; conditions: activity remaining
p70S6K(h) = p70S6K(h) (Homo sapiens (Human), UniProt P23443); assay: KinaseProfiler panel; design: dose or concentration left out as unconfirmed; conditions: activity remaining
PDGFRβ(h) = PDGFRβ(h) (Homo sapiens (Human), UniProt P09619); assay: KinaseProfiler panel; design: dose or concentration left out as unconfirmed; conditions: activity remaining
PKCβI(h) = PKCβI(h) (Homo sapiens (Human), UniProt P05771); assay: KinaseProfiler panel; design: dose or concentration left out as unconfirmed; conditions: activity remaining
PKCβI(h), sequence (P05771 whole entry): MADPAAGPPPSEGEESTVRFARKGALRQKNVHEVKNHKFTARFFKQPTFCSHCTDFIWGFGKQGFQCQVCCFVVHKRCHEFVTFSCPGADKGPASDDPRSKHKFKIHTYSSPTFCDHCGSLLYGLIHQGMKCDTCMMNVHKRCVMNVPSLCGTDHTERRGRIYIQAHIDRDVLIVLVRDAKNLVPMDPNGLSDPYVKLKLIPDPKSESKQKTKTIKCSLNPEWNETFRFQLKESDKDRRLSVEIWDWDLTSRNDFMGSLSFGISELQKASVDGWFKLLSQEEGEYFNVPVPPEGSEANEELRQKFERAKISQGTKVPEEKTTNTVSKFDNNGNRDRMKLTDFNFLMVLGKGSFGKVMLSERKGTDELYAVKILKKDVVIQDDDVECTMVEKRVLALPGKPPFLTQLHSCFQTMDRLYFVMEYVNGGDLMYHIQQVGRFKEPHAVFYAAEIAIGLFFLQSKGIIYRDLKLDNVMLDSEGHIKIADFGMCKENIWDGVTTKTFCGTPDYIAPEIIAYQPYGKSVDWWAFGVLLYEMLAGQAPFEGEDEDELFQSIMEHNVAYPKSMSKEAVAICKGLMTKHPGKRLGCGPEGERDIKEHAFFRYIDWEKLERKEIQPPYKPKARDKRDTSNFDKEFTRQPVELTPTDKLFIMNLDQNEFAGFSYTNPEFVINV

STK16(h) = STK16(h) (Homo sapiens (Human), UniProt O75716); assay: KinaseProfiler panel; design: dose or concentration left out as unconfirmed; conditions: activity remaining
STK16(h), sequence (O75716 whole entry): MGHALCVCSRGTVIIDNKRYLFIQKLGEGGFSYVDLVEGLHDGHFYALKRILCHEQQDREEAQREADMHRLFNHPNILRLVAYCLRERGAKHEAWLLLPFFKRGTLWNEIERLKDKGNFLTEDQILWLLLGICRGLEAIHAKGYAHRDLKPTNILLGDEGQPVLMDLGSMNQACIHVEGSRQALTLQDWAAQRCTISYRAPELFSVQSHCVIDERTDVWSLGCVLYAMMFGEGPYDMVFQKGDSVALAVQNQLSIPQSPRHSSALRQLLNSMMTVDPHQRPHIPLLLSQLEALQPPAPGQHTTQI

TGFBR2(h) = TGFBR2(h) (Homo sapiens (Human), UniProt P37173); assay: KinaseProfiler panel; design: dose or concentration left out as unconfirmed; conditions: activity remaining
VRK1(h) = VRK1(h) (Homo sapiens (Human), UniProt Q99986); assay: KinaseProfiler panel; design: dose or concentration left out as unconfirmed; conditions: activity remaining
Yes(h) = Yes(h) (Homo sapiens (Human), UniProt P07947); assay: KinaseProfiler panel; design: dose or concentration left out as unconfirmed; conditions: activity remaining
Yes(h), sequence (P07947 whole entry): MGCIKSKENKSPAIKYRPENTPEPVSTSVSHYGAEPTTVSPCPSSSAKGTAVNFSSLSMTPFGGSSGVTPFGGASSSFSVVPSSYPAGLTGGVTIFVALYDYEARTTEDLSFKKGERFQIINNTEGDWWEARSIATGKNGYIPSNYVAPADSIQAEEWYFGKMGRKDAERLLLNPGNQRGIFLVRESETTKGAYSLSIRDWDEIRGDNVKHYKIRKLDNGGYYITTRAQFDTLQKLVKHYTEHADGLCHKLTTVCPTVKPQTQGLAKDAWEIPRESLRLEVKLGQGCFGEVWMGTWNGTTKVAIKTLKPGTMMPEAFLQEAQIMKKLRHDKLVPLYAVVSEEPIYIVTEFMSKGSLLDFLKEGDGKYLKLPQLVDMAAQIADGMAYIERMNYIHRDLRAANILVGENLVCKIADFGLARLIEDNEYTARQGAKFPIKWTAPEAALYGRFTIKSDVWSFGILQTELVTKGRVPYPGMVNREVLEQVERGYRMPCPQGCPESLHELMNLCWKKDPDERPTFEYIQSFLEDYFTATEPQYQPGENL

Mnk2, sequence (Q9HBH9 whole entry): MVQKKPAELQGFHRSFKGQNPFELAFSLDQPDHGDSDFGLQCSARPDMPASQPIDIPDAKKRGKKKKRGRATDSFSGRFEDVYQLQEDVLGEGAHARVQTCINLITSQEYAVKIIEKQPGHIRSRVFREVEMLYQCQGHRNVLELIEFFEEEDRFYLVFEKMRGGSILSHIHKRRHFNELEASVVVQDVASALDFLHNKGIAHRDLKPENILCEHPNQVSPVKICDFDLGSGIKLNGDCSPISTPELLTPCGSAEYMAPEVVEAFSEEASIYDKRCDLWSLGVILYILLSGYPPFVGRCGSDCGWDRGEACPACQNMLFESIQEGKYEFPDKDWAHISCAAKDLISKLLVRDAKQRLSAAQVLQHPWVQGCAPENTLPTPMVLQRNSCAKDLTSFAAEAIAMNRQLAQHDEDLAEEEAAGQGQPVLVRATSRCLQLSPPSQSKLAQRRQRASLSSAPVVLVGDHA

Cc1cc2c(-c3ccc(NC(=O)[C@H](N)CC(C)(C)C)cc3C)ccnc2[nH]1 [Compound F-90, (2R)-2-Amino-4,4-dimethyl-N-[3-methyl-4-(2-methyl-1H-pyrrolo[2,3-b]pyridin-4-yl)phenyl]pentanamide]
pIC50 (Mnk2): 5.66
% Activity (CRIK(h)): 0%
% Activity (ALK1(h)): 94%
% Activity (ATM(h)): 103%
% Activity (Aurora-A(h)): 97%
% Activity (CDK4/cyclinD3(h)): 74%
% Activity (CLIK1(h)): 97%
% Activity (DYRK1B(h)): 108%
% Activity (eEF-2K(h)): 92%
% Activity (GRK7(h)): 98%
% Activity (IKKβ(h)): 99%
% Activity (IKKε(h)): 87%
% Activity (JNK2α2(h)): 99%
% Activity (LATS1(h)): 90%
% Activity (LTK(h)): 97%
% Activity (MAK(h)): 120%
% Activity (MLCK(h)): 98%
% Activity (mTOR/FKBP12(h)): 120%
% Activity (NEK1(h)): 94%
% Activity (p70S6K(h)): 93%
% Activity (PDGFRβ(h)): 105%
% Activity (PKCβI(h)): 90%
% Activity (STK16(h)): 94%
% Activity (TGFBR2(h)): 96%
% Activity (VRK1(h)): 99%
% Activity (Yes(h)): 87%
